Reference: PMC6132360 (Clinical and Translational Science, 2018)
Where two headings read alike, the source gives them in different places.

How the values were obtained:
[1] = for AUC0‐24h at T800, fold higher than with T200: 800 mg vs 200 mg oral testosterone
[2] = system: 5‐AR types 1 and 2; assay: Effect of dutasteride on in vitro testosterone metabolism in human hepatocytes; assay type: cell-based; details: 200 nM dutasteride with 50 μM testosterone, 60 minutes; for change in metabolite formation/levels with dutasteride co‐treatment: human hepatocytes
[3] = molecular target: UGT2B7 (Homo sapiens, UniProt P16662); details: scaled by absolute UGT2B abundance in the liver
[4] = molecular target: T1, UGT2B17 (Homo sapiens, UniProt O75795); assay type: in vitro ADME; details: scaled by absolute UGT2B abundance in the intestine
T1 sequence (O75795 24-530): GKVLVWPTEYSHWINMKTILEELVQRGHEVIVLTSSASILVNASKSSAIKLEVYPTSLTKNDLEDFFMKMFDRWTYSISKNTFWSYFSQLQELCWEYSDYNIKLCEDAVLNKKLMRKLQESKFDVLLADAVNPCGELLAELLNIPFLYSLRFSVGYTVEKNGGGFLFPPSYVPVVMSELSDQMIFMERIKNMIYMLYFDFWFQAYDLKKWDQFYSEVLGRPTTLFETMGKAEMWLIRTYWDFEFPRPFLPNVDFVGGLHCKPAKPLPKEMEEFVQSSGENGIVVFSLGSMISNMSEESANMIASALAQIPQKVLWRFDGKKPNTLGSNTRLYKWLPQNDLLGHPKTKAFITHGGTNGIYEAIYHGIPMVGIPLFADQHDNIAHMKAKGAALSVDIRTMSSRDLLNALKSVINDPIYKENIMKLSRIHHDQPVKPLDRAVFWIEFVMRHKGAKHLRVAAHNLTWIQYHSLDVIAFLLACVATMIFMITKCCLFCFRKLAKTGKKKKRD

[5] = system: human hepatocytes; assay: In vitro metabolite formation from testosterone in primary human hepatocyte; assay type: in vitro ADME
[6] = oral; cited from earlier work
[7] = system: testosterone production; details: normal men, single injection 300 μg/kg subcutaneous; cited from earlier work

Chain of UGT2B7 (P16662 24-529): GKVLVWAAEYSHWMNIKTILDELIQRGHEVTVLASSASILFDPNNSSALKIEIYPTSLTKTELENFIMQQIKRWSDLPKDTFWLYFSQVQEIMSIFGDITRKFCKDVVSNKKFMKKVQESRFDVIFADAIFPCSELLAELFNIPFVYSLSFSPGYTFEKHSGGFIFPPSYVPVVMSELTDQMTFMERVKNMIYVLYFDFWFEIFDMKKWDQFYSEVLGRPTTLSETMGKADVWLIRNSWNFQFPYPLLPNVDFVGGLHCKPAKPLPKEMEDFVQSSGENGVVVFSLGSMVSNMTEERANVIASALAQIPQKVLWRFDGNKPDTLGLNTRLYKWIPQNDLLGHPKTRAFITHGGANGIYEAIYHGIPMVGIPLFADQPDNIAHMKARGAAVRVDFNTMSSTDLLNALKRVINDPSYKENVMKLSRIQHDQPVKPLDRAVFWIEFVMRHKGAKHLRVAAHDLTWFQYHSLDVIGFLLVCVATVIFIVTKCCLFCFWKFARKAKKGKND

For `C[C@]12CC[C@H]3[C@@H](C[C@@H](O)C4=CC(=O)CC[C@@]43C)[C@@H]1CC[C@@H]2O` [6β‐OH‐T, 6β‐hydroxytestosterone], the detection in serum ([1]; after oral testosterone) was “only detectable in a few samples” and the “change in metabolite formation/levels with dutasteride co‐treatment” value (“change in metabolite formation/levels” below) [2] was “significant decreases”.
For `C[C@]12CC[C@@H](O)C[C@@H]1CC[C@@H]1[C@@H]2CC[C@]2(C)C(=O)CC[C@@H]12` [A, androsterone], the “change in metabolite formation/levels” value [2] was “significant decreases”, the “predicted contribution of UGT2B7 to hepatic glucuronidation” value [3] was 100% and the “predicted contribution of UGT2B17 to intestinal glucuronidation” value (from here on “predicted contribution of UGT2B17”) [4] was 70%.
In the case of `C[C@]12CCC(=O)C=C1CC[C@@H]1[C@@H]2CC[C@]2(C)C(=O)CC[C@@H]12` [AED, androstenedione], the “AUC0‐24h at T800, fold higher than with T200” value [1] is reported as 4.2 fold, the “circulating levels higher in T200+D and T800+D as compared with testosterone alone” value [1] is reported as 5.7 fold and the Tmax ([1]; male, human, in vivo, 200 mg, T200) is reported as 2 h. For the same compound, the Tmax ([1]; male, human, in vivo, T200+D) was 2 h, the “change in metabolite formation/levels” value [2] was “No significant changes” and the “in vitro formation from testosterone” value [5] was 46%.
For `C[C@]12CCC(=O)C[C@@H]1CC[C@@H]1[C@@H]2CC[C@]2(C)[C@@H](O)CC[C@@H]12` [DHT, dihydrotestosterone], the “AUC0‐24h at T800, fold higher than with T200” value [1] was 3.3 fold, the Tmax ([1]; male, human, in vivo, 800 mg, T800) was 2 h and the AUC(0-t) ([1]; male, human, in vivo, AUC0–24h, T800+D, average, n = 7) was 0.0266 µM·h. For the same compound, the Tmax ([1]; male, human, in vivo, T200+D) was 4 h and the “change in metabolite formation/levels” value [2] was “significant decreases”.
In the case of `C[C@]12CC[C@@H](O)C[C@H]1CC[C@@H]1[C@@H]2CC[C@]2(C)C(=O)CC[C@@H]12` [Etio, etiocholanolone], the “circulating levels higher in T200+D and T800+D as compared with testosterone alone” value [1] is reported as 2.3 fold and the “predicted contribution of UGT2B17” value [4] is reported as 90%.
In the case of `C[C@]12CC[C@H]3[C@@H](CCC4=CC(=O)CC[C@@]43C)[C@@H]1CC[C@@H]2O` [Testosterone, reference compound], the bioavailability [6] is given as 2–8% and the “predicted contribution of UGT2B17” value [4] is given as 100%.
In the case of `C[C@]12C=CC(=O)N[C@@H]1CC[C@@H]1[C@@H]2CC[C@]2(C)[C@@H](C(=O)Nc3cc(C(F)(F)F)ccc3C(F)(F)F)CC[C@@H]12` [dutasteride, reference compound], the “inhibition of 5‐AR types 1 and 2 mediated metabolism of testosterone” value [2] is reported as “complete inhibition”.
For acyline, the “duration of suppression of testosterone production” value [7] is listed as no less than 15 days.
